Data as given in patent US20030125319A1, “Methods for assessing, improving, or maintaining urogenital health in postmenopausal women” (priority 2000, published 2003).

Tested on: postmenopausal women
Test: Self-assessment questionnaire (subjective vaginal health questionnaire) in postmenopausal women taking the estrogen agonist/antagonist
Format: in vivo, human
Conditions: self-reported by postmenopausal women taking the compound
Method: The subject self-assessment of vaginal health is performed with a subjective vaginal health questionnaire. Typically, the questionnaire is performed in private and the results kept confidential. The questionnaire may include an envelope that is specially encoded to later identify the treatment that the subject is undergoing. An additional question may be added in subsequent questionnaires following administration of the baseline questionnaire, which question would ask: “Have you had any positive or negative vaginal changes since you have been taking the study medication?” This question may be coupled to a multiple-point ratings scale ranging from “mostly positive changes,” to “moderately positive changes,” to “mildly positive changes,” to “no changes,” to “mildly negative changes,” to “moderately negative changes,” to “mostly negative changes.”

Q: `O=C(O)C(O)C(O)C(=O)O.Oc1ccc2c(c1)CC[C@H](c1ccccc1)[C@@H]2c1ccc(OCCN2CCCC2)cc1` [(−)-cis-6-phenyl-5-[4-(2-pyrrolidin-1-yl-ethoxy)-phenyl]-5,6,7,8-tetrahydro-naphthalene-2-ol, D-tartrate salt] was tested. Which “frequency of sexual intercourse” value did it give?
A: increased frequency

Q: And the intensity of orgasms?
A: increased intensity

Q: And the number of orgasms?
A: increased number
